From ChEMBL document CHEMBL1201862, “PubChem BioAssay data set” (2004)
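1) Cells in 96-well plates. 2) Compound, 48 h, 5 concentrations. 3) Linear interpolation between surrounding doses. 4) Unreached endpoint = highest concentration. Abbreviation: GI50, concentration required for 50% inhibition of growth.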 The source made the active and inactive calls. No stated cut-off is given here; in the data, active = GI50 up to about 1.1 µM and inactive = higher.

Experiments:
Assay in all cases: growth of human tumour cells (NCI), 48 h
A498 = system: A498
UO-31 = system: UO-31
MOLT-4 = system: MOLT-4
HCC 2998 = system: HCC 2998
Malme-3M = system: Malme-3M
NCI-H226 = system: NCI-H226
HT-29 = system: HT-29
SK-MEL-2 = system: SK-MEL-2
UACC-62 = system: UACC-62
SK-OV-3 = system: SK-OV-3
MDA-N = system: MDA-N
CCRF-CEM = system: CCRF-CEM
ACHN = system: ACHN
COLO 205 = system: COLO 205
HCT-15 = system: HCT-15
Hs-578T = system: Hs-578T
TK-10 = system: TK-10
CAKI-1 = system: CAKI-1
SF-539 = system: SF-539

SMILES | GI50 (A498) | GI50 (UO-31) | GI50 (MOLT-4) | GI50 (HCC 2998) | GI50 (Malme-3M) | GI50 (NCI-H226) | GI50 (HT-29) | GI50 (SK-MEL-2) | GI50 (UACC-62) | GI50 (SK-OV-3) | GI50 (MDA-N) | GI50 (CCRF-CEM) | GI50 (ACHN) | GI50 (COLO 205) | GI50 (HCT-15) | GI50 (Hs-578T) | GI50 (TK-10) | GI50 (CAKI-1) | GI50 (SF-539)
O=C1CCCCC/C1=C\c1ccc(Cl)cc1 | 33 µM (inactive) | 27.2 µM (inactive) | 26.2 µM (inactive) | 26.2 µM (inactive) | 52.6 µM (inactive) | 81.1 µM (inactive) | 21.8 µM (inactive) | 34.8 µM (inactive) | 25.2 µM (inactive) | 60 µM (inactive) | 28.6 µM (inactive) | 22.6 µM (inactive) | 32.1 µM (inactive) | 18.2 µM (inactive) | 28.1 µM | 20.8 µM (inactive) | 28.1 µM (inactive) | 37.8 µM (inactive) | –
CCC(C)C1NC(=O)C2CCCN2C(=O)C(CC2CO2)OC(=O)CCNC(=O)C(C)N(C)C(=O)C(C(C)C)N(C)C1=O (centres undefined) | > 100 µM (inactive) | 7.31 µM (inactive) | 1.57 µM (inactive) | 21.8 µM (inactive) | 0.0142 µM (active) | > 5.08 µM (inactive) | 1.73 µM (inactive) | < 0.0158 µM (active) | 0.0209 µM (active) | > 100 µM (inactive) | 0.181 µM (active) | – | 0.54 µM (active) | < 0.0236 µM (active) | 12.8 µM | > 100 µM (inactive) | > 14 µM (inactive) | 0.993 µM (active) | 0.199 µM (active)
CCN(CC)Cc1cc(Nc2c3ccccc3nc3c2[nH]c2ccccc23)cc(CN(CC)CC)c1O | 1.53 µM (inactive) | 1.68 µM (inactive) | – | 0.836 µM (active) | – | 2.45 µM (inactive) | 0.35 µM (active) | 1.62 µM (inactive) | 1.55 µM (inactive) | 3.25 µM (inactive) | 0.815 µM (active) | – | 0.634 µM (active) | 0.366 µM (active) | 0.684 µM | 2.15 µM (inactive) | 2.42 µM (inactive) | 1.77 µM (inactive) | 1.08 µM (active)
S=c1nc2[nH]c3ccc(Br)cc3c2n[nH]1 | > 100 µM (inactive) | 72.8 µM (inactive) | 30.3 µM (inactive) | > 100 µM (inactive) | 83.8 µM (inactive) | 94.6 µM (inactive) | 35 µM (inactive) | 25.6 µM (inactive) | 30.5 µM (inactive) | > 100 µM (inactive) | 16.7 µM (inactive) | – | – | 98.4 µM (inactive) | 22.1 µM | 28.9 µM (inactive) | > 100 µM (inactive) | 69.8 µM (inactive) | > 100 µM (inactive)
COC(=O)c1c(C)cccc1/C=C1/Cc2c(C)cccc2C1=O | 88.9 µM (inactive) | > 100 µM (inactive) | > 100 µM (inactive) | > 100 µM (inactive) | > 100 µM (inactive) | > 100 µM (inactive) | > 100 µM (inactive) | – | > 100 µM (inactive) | > 100 µM (inactive) | > 100 µM (inactive) | – | 86.7 µM (inactive) | > 10 µM (inactive) | > 100 µM | 32.6 µM (inactive) | > 100 µM (inactive) | > 100 µM (inactive) | > 100 µM (inactive)
O=c1c2cccnc2cc(-c2ccccc2)n1CCO | > 100 µM (inactive) | > 100 µM (inactive) | > 100 µM (inactive) | > 100 µM (inactive) | > 100 µM (inactive) | > 100 µM (inactive) | > 100 µM (inactive) | > 100 µM (inactive) | > 100 µM (inactive) | > 100 µM (inactive) | > 100 µM (inactive) | > 100 µM (inactive) | > 100 µM (inactive) | > 100 µM (inactive) | > 100 µM | > 100 µM (inactive) | > 100 µM (inactive) | – | –
S=C1c2ccc(Cl)cc2-n2cnnc2C2CSCN12 (centres undefined) | > 100 µM (inactive) | > 100 µM (inactive) | > 100 µM (inactive) | > 100 µM (inactive) | > 100 µM (inactive) | > 100 µM (inactive) | > 100 µM (inactive) | > 100 µM (inactive) | > 100 µM (inactive) | > 100 µM (inactive) | 63.1 µM (inactive) | > 100 µM (inactive) | > 100 µM (inactive) | > 100 µM (inactive) | > 100 µM | > 100 µM (inactive) | > 100 µM (inactive) | > 100 µM (inactive) | –
Nc1ncc(CN2CCOCC2)c(-c2ccccc2O)n1 | > 100 µM (inactive) | > 100 µM (inactive) | > 100 µM (inactive) | – | > 100 µM (inactive) | > 100 µM (inactive) | > 100 µM (inactive) | > 100 µM (inactive) | > 100 µM (inactive) | > 100 µM (inactive) | > 100 µM (inactive) | > 100 µM (inactive) | > 100 µM (inactive) | > 100 µM (inactive) | > 100 µM | > 100 µM (inactive) | > 100 µM (inactive) | > 100 µM (inactive) | > 100 µM (inactive)
CCOC(=O)/C(C#N)=C/c1ccc2c(-c3c(OCC)ccc4cc(/C=C(\C#N)C(=O)OCC)ccc34)c(OCC)ccc2c1 | > 100 µM (inactive) | > 100 µM (inactive) | > 100 µM (inactive) | > 100 µM (inactive) | > 100 µM (inactive) | > 100 µM (inactive) | > 100 µM (inactive) | > 100 µM (inactive) | > 100 µM (inactive) | > 100 µM (inactive) | > 100 µM (inactive) | > 100 µM (inactive) | > 100 µM (inactive) | > 100 µM (inactive) | > 100 µM | > 100 µM (inactive) | > 100 µM (inactive) | > 100 µM (inactive) | –
Cc1cccc(NC(=S)Nc2ccccc2Cl)n1 | 24.9 µM (inactive) | > 100 µM (inactive) | > 100 µM (inactive) | – | 38 µM (inactive) | 39 µM (inactive) | > 100 µM (inactive) | > 100 µM (inactive) | 41 µM (inactive) | 25.8 µM (inactive) | > 100 µM (inactive) | > 100 µM (inactive) | – | > 100 µM (inactive) | 76.9 µM | 38.4 µM (inactive) | 34.8 µM (inactive) | 27.4 µM (inactive) | 32.1 µM (inactive)
CC(=O)CSCc1ccccn1 | 51.1 µM (inactive) | > 100 µM (inactive) | 20.7 µM (inactive) | 39.9 µM (inactive) | 4.72 µM (inactive) | 19.9 µM (inactive) | 51.3 µM (inactive) | 25.9 µM (inactive) | 31.3 µM (inactive) | > 100 µM (inactive) | 37.8 µM (inactive) | 39.9 µM (inactive) | 61.5 µM (inactive) | > 100 µM (inactive) | 86.5 µM | 2.69 µM (inactive) | > 100 µM (inactive) | – | 27 µM (inactive)
CCOC(=S)SSSC(=S)OCC | > 100 µM (inactive) | – | 27.9 µM (inactive) | 68.4 µM (inactive) | 16.3 µM (inactive) | 82.6 µM (inactive) | 54.3 µM (inactive) | – | 37.9 µM (inactive) | > 100 µM (inactive) | 49.3 µM (inactive) | 30.5 µM (inactive) | 19.1 µM (inactive) | 55 µM (inactive) | 19.5 µM | > 100 µM (inactive) | > 100 µM (inactive) | 29.9 µM (inactive) | 67.1 µM (inactive)
